The text below walks through data of US20200187502A1, “MICROBIOCIDAL OXADIAZOLE DERIVATIVES” (SYNGENTA PARTICIPATIONS AG, priority 2017, published 2020).

The test relates to Glomerella lacenarium (Colletotrichum lacenarium). The test is described as follows: Fungicidal activity, liquid culture, cucumber preventative (anthracnose). Format: cell-based. Conditions: 20 ppm in the applied formulation, liquid culture in PDB, inhibition of growth measured photometrically 3 to 4 days after application, compared to untreated control, read-out: disease control. Here is the method: Mycelia fragments or conidia suspensions of a fungus prepared either freshly from liquid cultures of the fungus or from cryogenic storage, are directly mixed into nutrient broth. DMSO solutions of the test compound (max. 10 mg/ml) are diluted with 0.025% Tween20 by a factor of 50 and 10 μl of this solution is pipetted into a microtiter plate (96-well format). The nutrient broth containing the fungal spores/mycelia fragments is then added to give an end concentration of the tested compound. The test plates are incubated in the dark at 24° C. and 96% relative humidity. The inhibition of fungal growth is determined photometrically after 2 to 7 days, depending on the pathosystem, and percent antifungal activity relative to the untreated check is calculated.
Conidia of the fungus from cryogenic storage are directly mixed into nutrient broth (PDB—potato dextrose broth). After placing a (DMSO) solution of test compound into a microtiter plate (96-well format), the nutrient broth containing the fungal spores is added. The test plates are incubated at 24° C. and the inhibition of growth is measured photometrically 3 to 4 days after application.
The following compounds at 20 ppm in the applied formulation give at least 80% disease control in this test when compared to untreated control under the same conditions, which show extensive disease development.

Take `CON(Cc1ccc(-c2noc(C(F)(F)F)n2)s1)C(=O)n1ccnc1` [Compound 1.3, N-methoxy-N-[[5-[5-(trifluoromethyl)-1,2,4-oxadiazol-3-yl]-2-thienyl]methyl]imidazole-1-carboxamide]: the inhibition of growth at 20 ppm is no less than 80%.

Consider `CON(Cc1ccc(-c2noc(C(F)(F)F)n2)s1)S(C)(=O)=O` [Compound 1.31, N-methoxy-N-[[5-[5-(trifluoromethyl)-1,2,4-oxadiazol-3-yl]-2-thienyl]methyl]methanesulfonamide], for which the inhibition of growth at 20 ppm was no less than 80%. Next, `CON(Cc1ccc(-c2noc(C(F)(F)F)n2)s1)S(=O)(=O)N1CCCC1` [Compound 1.36, N-methoxy-N-[[5-[5-(trifluoromethyl)-1,2,4-oxadiazol-3-yl]-2-thienyl]methyl]pyrrolidine-1-sulfonamide]: no less than 80%; `C=CCS(=O)(=O)N(Cc1ccc(-c2noc(C(F)(F)F)n2)s1)OC` [Compound 1.38, N-methoxy-N-[[5-[5-(trifluoromethyl)-1,2,4-oxadiazol-3-yl]-2-thienyl]methyl]prop-2-ene-1-sulfonamide]: no less than 80%.

As for `COC(=O)CCS(=O)(=O)N(Cc1ccc(-c2noc(C(F)(F)F)n2)s1)OC` [Compound 1.39, methyl 3-[methoxy-[[5-[5-(trifluoromethyl)-1,2,4-oxadiazol-3-yl]-2-thienyl]methyl]sulfamoyl]propanoate], the inhibition of growth at 20 ppm was no less than 80%. Turning to `COCCS(=O)(=O)N(Cc1ccc(-c2noc(C(F)(F)F)n2)s1)OC` [Compound 1.40, N,2-dimethoxy-N-[[5-[5-(trifluoromethyl)-1,2,4-oxadiazol-3-yl]-2-thienyl]methyl]ethanesulfonamide], the inhibition of growth at 20 ppm was no less than 80%.

In the case of `CCOC(=O)N(Cc1ccc(-c2noc(C(F)(F)F)n2)s1)C(C)C` [Compound 4.12, ethyl N-isopropyl-N-[[5-[5-(trifluoromethyl)-1,2,4-oxadiazol-3-yl]-2-thienyl]methyl]carbamate], the inhibition of growth at 20 ppm was no less than 80%.

In the case of `CC(C)C(=O)N(Cc1ccc(-c2noc(C(F)(F)F)n2)s1)OCC(F)F` [Compound 4.20, N-(2,2-difluoroethoxy)-2-methyl-N-[[5-[5-(trifluoromethyl)-1,2,4-oxadiazol-3-yl]-2-thienyl]methyl]propanamide], the inhibition of growth at 20 ppm was no less than 80%. As for `COC(C)C(=O)N(Cc1ccc(-c2noc(C(F)(F)F)n2)s1)OCC(F)F` (centres unmarked) [Compound 4.21, N-(2,2-difluoroethoxy)-2-methoxy-N-[[5-[5-(trifluoromethyl)-1,2,4-oxadiazol-3-yl]-2-thienyl]methyl]propanamide], the inhibition of growth at 20 ppm is no less than 80%. Next, `CCN(Cc1ccc(-c2noc(C(F)(F)F)n2)s1)C(=O)c1ccccc1Cl` [Compound 5.8, 2-chloro-N-ethyl-N-[[5-[5-(trifluoromethyl)-1,2,4-oxadiazol-3-yl]-2-thienyl]methyl]benzamide]: no less than 80%; `CC(C)N(Cc1ccc(-c2noc(C(F)(F)F)n2)s1)C(=O)CC1CC1` [Compound 5.27, 2-cyclopropyl-N-isopropyl-N-[[5-[5-(trifluoromethyl)-1,2,4-oxadiazol-3-yl]-2-thienyl]methyl]acetamide]: no less than 80%. Next, `CC(C)N(Cc1ccc(-c2noc(C(F)(F)F)n2)s1)C(=O)C1(C)CC1` [Compound 5.30, N-isopropyl-1-methyl-N-[[5-[5-(trifluoromethyl)-1,2,4-oxadiazol-3-yl]-2-thienyl]methyl]cyclopropanecarboxamide]: no less than 80%; `CC1CC1C(=O)N(Cc1ccc(-c2noc(C(F)(F)F)n2)s1)C(C)C` (centres unmarked) [Compound 5.34, N-isopropyl-2-methyl-N-[[5-[5-(trifluoromethyl)-1,2,4-oxadiazol-3-yl]-2-thienyl]methyl]cyclopropanecarboxamide]: no less than 80%; `O=C(c1ccccc1Cl)N(Cc1ccc(-c2noc(C(F)(F)F)n2)s1)C1CC1` [Compound 5.35, 2-chloro-N-cyclopropyl-N-[[5-[5-(trifluoromethyl)-1,2,4-oxadiazol-3-yl]-2-thienyl]methyl]benzamide]: no less than 80%. Consider `O=C(c1ccccc1Cl)N(Cc1ccc(-c2noc(C(F)(F)F)n2)s1)OCC(F)F` [Compound 5.44, 2-chloro-N-(2,2-difluoroethoxy)-N-[[5-(5-(trifluoromethyl)-1,2,4-oxadiazol-3-yl]-2-thienyl]methyl]benzamide], for which the inhibition of growth at 20 ppm was no less than 80%.

Turning to `CC1(C(=O)N(Cc2ccc(-c3noc(C(F)(F)F)n3)s2)OCC(F)F)CC1` [Compound 5.48, N-(2,2-difluoroethoxy)-1-methyl-N-[[5-[5-(trifluoromethyl)-1,2,4-oxadiazol-3-yl]-2-thienyl]methyl]cyclopropanecarboxamide], the inhibition of growth at 20 ppm was no less than 80%. Next, `CC(C)N(Cc1ccc(-c2noc(C(F)(F)F)n2)s1)C(=O)N1CCCO1` [Compound 5.58, N-isopropyl-N-[[5-[5-(trifluoromethyl)-1,2,4-oxadiazol-3-yl]-2-thienyl]methyl]isoxazolidine-2-carboxamide]: no less than 80%. For the compound `CC(C)N(Cc1ccc(-c2noc(C(F)(F)F)n2)s1)S(=O)(=O)N(C)C` [Compound 6.4, N-(dimethylsulfamoyl)-N-[[5-[5-(trifluoromethyl)-1,2,4-oxadiazol-3-yl]-2-thienyl]methyl]propan-2-amine], the inhibition of growth at 20 ppm was no less than 80%. As to `CCN(Cc1ccc(-c2noc(C(F)(F)F)n2)s1)S(=O)(=O)c1ccccc1` [Compound 6.15, N-ethyl-N-[[5-[5-(trifluoromethyl)-1,2,4-oxadiazol-3-yl]-2-thienyl]methyl]benzenesulfonamide], the inhibition of growth at 20 ppm was no less than 80%.

In the case of `CC(C)S(=O)(=O)N(C)Cc1ccc(-c2noc(C(F)(F)F)n2)s1` [Compound 6.23, N-methyl-N-[[5-[5-(trifluoromethyl)-1,2,4-oxadiazol-3-yl]-2-thienyl]methyl]propane-2-sulfonamide], the inhibition of growth at 20 ppm was no less than 80%. Next, `CCCCS(=O)(=O)N(Cc1ccc(-c2noc(C(F)(F)F)n2)s1)C1CC1` [Compound 6.34, N-cyclopropyl-N-[[5-[5-(trifluoromethyl)-1,2,4-oxadiazol-3-yl]-2-thienyl]methyl]butane-1-sulfonamide]: no less than 80%; `CCN(Cc1ccc(-c2noc(C(F)(F)F)n2)s1)C(=O)C(=O)C(C)(C)C` [Compound 6.41, N-ethyl-3,3-dimethyl-2-oxo-N-[[5-[5-(trifluoromethyl)-1,2,4-oxadiazol-3-yl]-2-thienyl]methyl]butanamide]: no less than 80%. Next, `CN(C)C(=O)C(=O)N(Cc1ccc(-c2noc(C(F)(F)F)n2)s1)OCC(F)F` [Compound 6.65, N′-(2,2-difluoroethoxy)-N,N-dimethyl-N′-[[5-[5-(trifluoromethyl)-1,2,4-oxadiazol-3-yl]-2-thienyl]methyl]oxamide]: no less than 80%.
